Experimental data published in patent US20220339143A1, “TAK-925 FOR USE IN TREATING NARCOLEPSY” (Takeda Pharmaceutical Company Limited, priority 2019, published 2022).
Where two headings read alike, the source gives them in different places.

Columns and labels:
Assay type in all cases: in vivo, human
[1] = system: patients with NT1; experiment: Sleep latency in MWT, multiple dose (Cohorts B1, B2)
Description: (§1) The purpose of the study was to evaluate the safety, tolerability, pharmacokinetics and pharmacodynamics of Compound A after multiple IV administration in patients with NT1. NT1 patients were evaluated in Cohort B1 and B2 (Table 19). Compound A or placebo were administered via IV infusion over 9 hours once daily for 7 days. A total of 13 patients with NT1 were treated with Compound A or placebo (4, 4, and 5 subjects in the placebo, Compound A 11 mg, and Compound A 44 mg groups, respectively). In this part, potential efficacy of Compound A was evaluated with MWT, ESS, KSS, night-time PSG (NPSG), cataplexy frequency assessment, and PGI-C as an exploratory PD assessment.
An overview of study schedule and PD testing in NT1 Patients is illustrated in FIG. 11. After screening, patients eligible for these parts had to discontinue any medication for narcolepsy including medications used for EDS or cataplexy. The medications had to be stopped for a minimum of 7 days or at least 5 half-lives of each medication, whichever was longer, before the first day of dosing (Day 1). As for a subject having possibility of getting injured due to severe cataplexy, the subject might have been confined to the site before Day −2 at a discretion of the investigator. In all cohorts of these parts, subjects underwent NPSG on Day −2 and baseline MWT sessions 4 times on Day −1 (at around 10:00, 12:00, 14:00, and 16:00). Study drug dosing via IV infusion was started at around 08:00. MWT was conducted on Day 1 at around 10:00, 12:00, 14:00, and 16:00. Subjects were allowed to take a nap on the days with no MWT assessment. At night of Day 6, the subjects underwent NPSG once again to evaluate the effect of multiple daytime dosing on night-time sleep structure. On Day 7, the subjects underwent MWT at the same hours as on Day −1. Cataplexy was to be evaluated by using the self-recorded sleep diary. The subjects were discharged from the study site on Day 8.
The MWT is a validated objective measure that evaluates a person's ability to remain awake under soporific conditions for a defined period of time. As there is no biological measure of wakefulness, this was measured indirectly by the inability or delayed tendency to fall asleep. This tendency to fall asleep was measured via EEG-derived sleep latency in MWT.
On Day −1, Day 1 and Day 7, 40-minute session (1 session) of MWTs was performed 4 times (approximately at 10:00, 12:00, 14:00, and 16:00) per day. Sleep latency of each session was recorded. Subjects were required to stay awake during an interval between sessions.

[2] = system: healthy adults, healthy elderly subjects; experiment: Safety/tolerability of a single dose given as 9 hour continuous IV infusion in healthy adults and healthy elderly subjects
Description: This study investigates (i) the safety and tolerability of Compound A (methyl (2R,3S)-3-((methylsulfonyl)amino)-2-(((cis-4-phenylcyclohexyl)oxy)methyl)piperidine-1-carboxylate) when a single dose given as a 9 hour continuous IV infusion is administered to healthy adults, healthy elderly subjects and patients with narcolepsy type 1 (NT1); (ii) the pharmacokinetics of Compound A when a single dose given as a 9 hour continuous IV infusion is administered to healthy adults, healthy elderly subjects and patients with narcolepsy type 1; and (iii) the pharmacodynamics (PD) effects of Compound A, primarily by evaluation of the sleep latency on MWT when a single dose given as a 9 hour continuous IV infusion is administered to patients with narcolepsy type 1.
Safety and tolerability: adverse events, vital signs, 12-lead ECG and clinical laboratory tests (hematological tests, blood biochemical tests and urinalysis)
To investigate the safety of Compound A, the treatment-emergent adverse events (TEAEs) for healthy subjects and subjects with narcolepsy type 1 (NT1 patients) treated with Compound A were evaluated. A summary of the TEAEs for healthy subjects from cohorts 1 and 2 is shown in FIG. 3, for healthy subjects from cohorts S1, S2, 3, and 4 is shown in FIG. 4, and for NT1 patients is shown in FIG. 5.

[3] = Multiple-dose PK of intravenous Compound A in patients with NT1 (Cohorts B1, B2), plasma; settings: for clearance: read-out: CL, Mean (converted)
Description: as §1
Blood samples used for PK analysis of Compound A was collected according to Table 20. See also FIG. 12 for whole schedules of study procedures.

[4] = human, plasma, intravenous, 11 mg, Day 7

COC(=O)N1CCC[C@H](NS(C)(=O)=O)[C@@H]1CO[C@H]1CC[C@@H](c2ccccc2)CC1 [Compound A, methyl (2R,3S)-3-((methylsulfonyl)amino)-2-(((cis-4-phenylcyclohexyl)oxy)methyl)piperidine-1-carboxylate]
mean sleep latency in MWT ([1]; 11 mg, Day 1 (placebo 1.31)): 37.16 min | mean change from baseline in average sleep latency in MWT ([1]; 11 mg, Day 1 (placebo −0.66)): 35.13 min | mean sleep latency in MWT ([1]; 11 mg, Day 7 (placebo 1.59)): 23.03 min | mean change from baseline in average sleep latency in MWT ([1]; 11 mg, Day 7 (placebo −0.38)): 21.00 min | maximum sleep latency achieved in MWT ([1]; 11 mg, at 4 hours on Day 1): 40 min | mean sleep latency in MWT ([1]; 44 mg, Day 1 (placebo 1.31)): 40.00 min | mean change from baseline in average sleep latency in MWT ([1]; 44 mg, Day 1 (placebo −0.66)): 34.19 min | mean sleep latency in MWT ([1]; 44 mg, Day 7 (placebo 1.59)): 40.00 min | mean change from baseline in average sleep latency in MWT ([1]; 44 mg, Day 7 (placebo −0.38)): 34.78 min | maximum sleep latency achieved in MWT ([1]; 44 mg, all time points on both Day 1 and Day 7): 40 min | BP and pulse rate increases vs Compound A concentration ([2]; human, in vivo): Trend for the observed BP and pulse rate increases in healthy subjects and Compound A concentration was observed | commonly observed AEs ([2]; human, in vivo, iv): BP increased and heart rate increased | adverse events (AEs), severity and seriousness ([2]; single dose, 9 hour IV infusion, Compound A groups (healthy subjects and NT1 patients)): all of the AEs were mild (except 1 moderate influenza) and no serious AEs were observed | AUCtau D, Mean ([3]; 11 mg, Day 1): 15.00 ng·h/mL/mg | Cmax D Mean ([3]; 11 mg, Day 1): 1.660 ng/mL/mg | Vax, Mean ([3]; 11 mg, Day 1): 129.6 L | AUCtau D, Mean ([3]; 11 mg, Day 7): 16.70 ng·h/mL/mg | Cmax D Mean ([3]; 11 mg, Day 7): 1.868 ng/mL/mg | Cmin, Mean ([3]; 11 mg, Day 7): 0.3258 ng/mL | PTR, Mean ([3]; 11 mg, Day 7): 57.07 | Vx, Mean ([3]; 11 mg, Day 7): 313.0 L | t½z Mean ([3]; 11 mg, Day 7): 3.595 h | Cmin, Geo Mean ([3]; 11 mg, Day 7 (N of Geo Mean 3)): 0.4061 ng/mL | AUCtau D, Mean ([3]; 44 mg, Day 1): 15.70 ng·h/mL/mg | Vax, Mean ([3]; 44 mg, Day 1): 135.0 L | Vz, Mean ([3]; 44 mg, Day 1): 316.2 L | AUCtau D, Mean ([3]; 44 mg, Day 7): 16.56 ng·h/mL/mg | Cmax D Mean ([3]; 44 mg, Day 7): 1.858 ng/mL/mg | Cmin, Mean ([3]; 44 mg, Day 7): 1.327 ng/mL | PTR, Mean ([3]; 44 mg, Day 7): 70.28 | Vx, Mean ([3]; 44 mg, Day 7): 375.2 L | t½z Mean ([3]; 44 mg, Day 7): 4.222 h | drug accumulation ([3]; QD dosing, 9-hour IV infusion daily for 7 days): no drug accumulation was observed | dose proportionality of mean plasma systemic exposures ([3]; daily 9-hour IV infusions, 11 and 44 mg): generally increased in a dose proportional manner | AUC(0-inf) ([3]; human, plasma, intravenous, 11 mg, Day 1, read-out: AUCinf, Geo Mean): 166 ng·h/mL | AUC(0-inf) ([3]; human, plasma, intravenous, 11 mg, Day 1, read-out: AUCinf, Mean): 167 ng·h/mL | AUC(0-t) ([3]; human, plasma, intravenous, 11 mg, Day 1, read-out: AUClast, Geo Mean): 164 ng·h/mL | AUC ([3]; human, plasma, intravenous, 11 mg, Day 1, read-out: AUCtau, Geo Mean): 164 ng·h/mL | AUC ([3]; human, plasma, intravenous, 11 mg, Day 1, read-out: AUCtau, Mean): 165 ng·h/mL | Cmax ([3]; human, plasma, intravenous, 11 mg, Day 1, read-out: Cmax, Geo Mean): 18.2 ng/mL | Cmax ([3]; human, plasma, intravenous, 11 mg, Day 1, read-out: Cmax, Mean): 18.3 ng/mL | AUC(0-t) ([3]; human, plasma, intravenous, 11 mg, Day 7, read-out: AUClast, Geo Mean): 182 ng·h/mL | AUC ([3]; human, plasma, intravenous, 11 mg, Day 7, read-out: AUCtau, Geo Mean): 183 ng·h/mL | AUC ([3]; human, plasma, intravenous, 11 mg, Day 7, read-out: AUCtau, Mean): 184 ng·h/mL | Cmax at 7 days ([3]; human, plasma, intravenous, 11 mg, Day 7, read-out: Cmax, Geo Mean): 20.5 ng/mL | AUC(0-inf) ([3]; human, plasma, intravenous, 44 mg, Day 1, read-out: AUCinf, Mean): 697 ng·h/mL | AUC(0-t) ([3]; human, plasma, intravenous, 44 mg, Day 1, read-out: AUClast, Geo Mean): 682 ng·h/mL | AUC ([3]; human, plasma, intravenous, 44 mg, Day 7, read-out: AUCtau, Geo Mean): 723 ng·h/mL | AUC ([3]; human, plasma, intravenous, 44 mg, Day 7, read-out: AUCtau, Mean): 729 ng·h/mL | Cmax at 7 days ([3]; human, plasma, intravenous, 44 mg, Day 7, read-out: Cmax, Geo Mean): 81.2 ng/mL | Vd ([3]; human, plasma, intravenous, 11 mg, Day 1, read-out: Vz, Mean): 310 L | Tmax at 7 days [3, 4]: 5.17 h | clearance [3, 4]: 1010 mL/min | clearance ([3]; human, plasma, intravenous, 44 mg, Day 1): 1080 mL/min | Tmax ([3]; human, plasma, intravenous, 44 mg, Day 7): 4.93 h | AUC(0-t) ([3]; human, plasma, iv, 11 mg, Day 1, 9 h IV infusion QD, NT1, read-out: AUClast, Mean): 164 ng·h/mL
